Test system: hepatocytes
Experiment: RNA-seq of hepatocytes treated with Phase III failure compounds
Experimental: RNA-seq was performed to determine the effects of the compounds on hepatocytes.
Significance was determined by the criteria of FPKM≥0.5, a log 2(fold-change)≥1, and a […].

## C=CCNC1=C2C[C@@H](C)C[C@H](OC)[C@H](O)[C@@H](C)/C=C(\C)[C@H](OC(N)=O)[C@@H](OC)/C=C\C=C(/C)C(=O)NC(=CC1=O)C2=O [17-MG (Tanespimycin), Tanespimycin]
  RNA-seq results, CYP2B6 expression: 1.32
  RNA-seq results, CYP2C19 expression: 0.34
  RNA-seq results, CYP2D6 expression: 0.06
  RNA-seq results, CYP3A4 expression: 2.50
  RNA-seq results, CYP7B1 expression: 0.43
  RNA-seq results, CYP39A1 expression: 1.38
  RNA-seq results: CYP2B6 expression: 0.2
  RNA-seq results: CYP2C19 expression: −1.4
  RNA-seq results: CYP2D6 expression: 0.27
  RNA-seq results: CYP3A4 expression: 0.96
  RNA-seq results: CYP7B1 expression: −1.05
  RNA-seq results: CYP39A1 expression: −0.62
Gene A1BG, hepatocytes
  RNA-seq results: A1BG expression: −0.10
Gene AGTR1, hepatocytes
  RNA-seq results: AGTR1 expression: −0.03
Gene AGXT, hepatocytes
  RNA-seq results: AGXT expression: 0.27
Gene AHI1, hepatocytes
  RNA-seq results: AHI1 expression: 0.39
Gene AMPD3, hepatocytes
  RNA-seq results: AMPD3 expression: 1.15
Gene AMT, hepatocytes
  RNA-seq results: AMT expression: 0.31
Gene ANGPTL3, hepatocytes
  RNA-seq results: ANGPTL3 expression: 0.06
Gene ANKS4B, hepatocytes
  RNA-seq results: ANKS4B expression: 1.12
Gene ANKS6, hepatocytes
  RNA-seq results: ANKS6 expression: −0.15
Gene ANPEP, hepatocytes
  RNA-seq results: ANPEP expression: −0.06
Gene AOC2, hepatocytes
  RNA-seq results: AOC2 expression: 0.24
Gene APOA2, hepatocytes
  RNA-seq results: APOA2 expression: −0.64
Gene APOA5, hepatocytes
  RNA-seq results: APOA5 expression: 0.07
Gene APOB, hepatocytes
  RNA-seq results: APOB expression: 2.13
Gene COG5, hepatocytes
  RNA-seq results: COG5 expression: −1.94
Gene COG6, hepatocytes
  RNA-seq results: COG6 expression: −0.28
Gene COL1A1, hepatocytes
  RNA-seq results: COL1A1 expression: 0.45
Gene COX6A1, hepatocytes
  RNA-seq results: COX6A1 expression: 0.27
Gene CP, hepatocytes
  RNA-seq results: CP expression: 0.19
Gene CPS1, hepatocytes
  RNA-seq results: CPS1 expression: −0.79
Gene CPT1A, hepatocytes
  RNA-seq results: CPT1A expression: −1.18
Gene CPT2, hepatocytes
  RNA-seq results: CPT2 expression: 1.3
Gene CROT, hepatocytes
  RNA-seq results: CROT expression: 0.23
Gene CSPP1, hepatocytes
  RNA-seq results: CSPP1 expression: −0.45
Gene CTC1, hepatocytes
  RNA-seq results: CTC1 expression: 0.65
Gene CTDSP2, hepatocytes
  RNA-seq results: CTDSP2 expression: −0.36
Gene CTH, hepatocytes
  RNA-seq results: CTH expression: 1.32
Gene CTNS, hepatocytes
  RNA-seq results: CTNS expression: −0.39
Gene CTSF, hepatocytes
  RNA-seq results: CTSF expression: 0.01
Gene CTSK, hepatocytes
  RNA-seq results: CTSK expression: 1.01
Gene CYB5A, hepatocytes
  RNA-seq results: CYB5A expression: −0.54
Gene CYB5R3, hepatocytes
  RNA-seq results: CYB5R3 expression: −0.57
Gene CYP27A1, hepatocytes
  RNA-seq results: CYP27A1 expression: −0.12
Gene DAO, hepatocytes
  RNA-seq results: DAO expression: −0.79
Gene DBT, hepatocytes
  RNA-seq results: DBT expression: −0.27
Gene DCDC2, hepatocytes
  RNA-seq results: DCDC2 expression: −2.14
Gene DCXR, hepatocytes
  RNA-seq results: DCXR expression: −0.21
Gene FABP1, hepatocytes
  RNA-seq results: FABP1 expression: −0.95
Gene FADD, hepatocytes
  RNA-seq results: FADD expression: −0.41
Gene FAM111A, hepatocytes
  RNA-seq results: FAM111A expression: 0.93
Gene FAM111B, hepatocytes
  RNA-seq results: FAM111B expression: −1.24
Gene FAN1, hepatocytes
  RNA-seq results: FAN1 expression: 0.32
Gene FARS2, hepatocytes
  RNA-seq results: FARS2 expression: −3
Gene FASLG, hepatocytes
  RNA-seq results: FASLG expression: −1.15
Gene FGA, hepatocytes
  RNA-seq results: FGA expression: 0.46
Gene FGD1, hepatocytes
  RNA-seq results: FGD1 expression: −1.37
Gene FGFR2, hepatocytes
  RNA-seq results: FGFR2 expression: −2.48
Gene FIG4, hepatocytes
  RNA-seq results: FIG4 expression: −0.69
Gene FIS1, hepatocytes
  RNA-seq results: FIS1 expression: −0.22
Gene FTCD, hepatocytes
  RNA-seq results: FTCD expression: −1.66
Gene FTH1, hepatocytes
  RNA-seq results: FTH1 expression: −0.49
Gene FUCA1, hepatocytes
  RNA-seq results: FUCA1 expression: 0.43
Gene FXN, hepatocytes
  RNA-seq results: FXN expression: −1.04
Gene G6PC3, hepatocytes
  RNA-seq results: G6PC3 expression: −0.38
Gene G6PC, hepatocytes
  RNA-seq results: G6PC expression: −0.03
Gene G6PD, hepatocytes
  RNA-seq results: G6PD expression: 1.7
Gene GALK1, hepatocytes
  RNA-seq results: GALK1 expression: −0.7
Gene GALK2, hepatocytes
  RNA-seq results: GALK2 expression: −1.47
Gene GALT, hepatocytes
  RNA-seq results: GALT expression: −0.43
Gene GATA6, hepatocytes
  RNA-seq results: GATA6 expression: −0.77
Gene GATM, hepatocytes
  RNA-seq results: GATM expression: −1.11
Gene GBA, hepatocytes
  RNA-seq results: GBA expression: −0.38
Gene GBE1, hepatocytes
  RNA-seq results: GBE1 expression: −2.25
Gene GCH1, hepatocytes
  RNA-seq results: GCH1 expression: 0.43
Gene GCKR, hepatocytes
  RNA-seq results: GCKR expression: −0.16
Gene GCLC, hepatocytes
  RNA-seq results: GCLC expression: −0.18
Gene GOSH, hepatocytes
  RNA-seq results: GOSH expression: −1.49
Gene RRM2B, hepatocytes
  RNA-seq results: RRM2B: 1.19
Gene RSAD1, hepatocytes
  RNA-seq results: RSAD1: −0.23
Gene SAMHD1, hepatocytes
  RNA-seq results: SAMHD1: −0.05
Gene SC5D, hepatocytes
  RNA-seq results: SC5D: 1.56
Gene SCARB1, hepatocytes
  RNA-seq results: SCARB1: −0.35
Gene SCN9A, hepatocytes
  RNA-seq results: SCN9A: −0.22
Gene SDCCAG8, hepatocytes
  RNA-seq results: SDCCAG8: 0.11
Gene SEPN1, hepatocytes
  RNA-seq results: SEPN1: −0.07
Gene SERAC1, hepatocytes
  RNA-seq results: SERAC1: 0.26
Gene SERPINA1, hepatocytes
  RNA-seq results: SERPINA1: −0.05
Gene SERPING1, hepatocytes
  RNA-seq results: SERPING1: 0.28
Gene SERPINI1, hepatocytes
  RNA-seq results: SERPINI1: 0.22
Gene SETBP1, hepatocytes
  RNA-seq results: SETBP1: 0.54
Gene SFXN4, hepatocytes
  RNA-seq results: SFXN4: −0.14
Gene SLC10A1, hepatocytes
  RNA-seq results: SLC10A1: 1.13
Gene SLC10A3, hepatocytes
  RNA-seq results: SLC10A3: −1.25
Gene SLC10A5, hepatocytes
  RNA-seq results: SLC10A5: 2.20
Gene SLC10A7, hepatocytes
  RNA-seq results: SLC10A7: 0.55
Gene SLC11A2, hepatocytes
  RNA-seq results: SLC11A2: 0.65
Gene SLC19A1, hepatocytes
  RNA-seq results: SLC19A1: −0.71
Gene SLC19A2, hepatocytes
  RNA-seq results: SLC19A2: 0.62
Gene SLC19A3, hepatocytes
  RNA-seq results: SLC19A3: 0.68
Gene SLC22A1, hepatocytes
  RNA-seq results: SLC22A1: 0.08
Gene SLC22A5, hepatocytes
  RNA-seq results: SLC22A5: −0.72
Gene SLC25A1, hepatocytes
  RNA-seq results: SLC25A1: −0.29
Gene SLC25A10, hepatocytes
  RNA-seq results: SLC25A10: −0.45
Gene SLC25A12, hepatocytes
  RNA-seq results: SLC25A12: −0.06
Gene SLC25A13, hepatocytes
  RNA-seq results: SLC25A13: 0.72
Gene SLC25A15, hepatocytes
  RNA-seq results: SLC25A15: 0.58
Gene SLC25A19, hepatocytes
  RNA-seq results: SLC25A19: −0.70
Gene SLC25A20, hepatocytes
  RNA-seq results: SLC25A20: −0.52
Gene SLC25A29, hepatocytes
  RNA-seq results: SLC25A29: −1.07
Gene SLC25A32, hepatocytes
  RNA-seq results: SLC25A32: −0.50

From patent US20210254056A1, “IDENTIFICATION AND TARGETED MODULATION OF GENE SIGNALING NETWORKS” (CAMP4 THERAPEUTICS CORPORATION, priority 2017, published 2021)
